Experimental data as given in patent US11787810B2, “Diacylglyceride O-acyltransferase 2 inhibitors” (Merck Sharp & Dohme Corp., priority 2020, dated 2023).
pIC50: −log10 of the molar value.

target: human DGAT2 (hDGAT2) (Homo sapiens (Human), UniProt Q96PD7); assay: DGAT2 enzymatic activity assay (13C18-triolein formation, LC/MS/MS); assay type: biochemical; conditions: hDGAT2 Sf-9 membrane prep, 25 μM diolein, 5 μM 13C oleoyl-CoA; read-out: Human DGAT2 IC50
Description: Sf-9 insect cells were maintained in Grace's insect cell culture medium with 10% heated-inactivated fetal bovine serum, 1% Pluronic F-68 and 0.14 μg/ml Kanamycine sulfate at 27° C. in a shaker incubator. After infection with untagged baculovirus expressing human DGAT2 (hDGAT2) at multiplicity of infection (MOI) 3 for 48 hours, cells were harvested. Cell pellets were suspended in buffer containing 10 mM Tris-HCl pH 7.5, 1 mM EDTA, 250 mM sucrose and Complete Protease Inhibitor Cocktail (Sigma Aldrich), and sonicated on ice. Cell debris were removed by centrifugation at 2000×g for 15 minutes. Membrane fractions were isolated by ultracentrifugation (100,000×g), resuspended in the same buffer, and frozen (−80° C.) for later use. The protein concentration was determined with the Pierce™ BCA Protein Assay Kit (Thermo Fisher Scientific). Expression of protein levels was analyzed by immunoblotting with rabbit anti-DGAT2 antibody (Abcam, ab102831) and donkey anti-rabbit IgG H&L Alexa Fluor® 647 (Abcam, ab150075) followed by detection using Typhoon FLA9000 (GE Healthcare).
LC/MS/MS analyses were performed using Thermal Fisher's LX4-TSQ Vantage system. This system consists of an Agilent binary high-performance liquid chromatography (HPLC) pumps and a TSQ Vantage triple quadrupole MS/MS instrument. For each sample, 2 μL samples from the top organic layer of in-plate liquid-liquid extraction were injected onto a Thermo Betabasic C4 column (2.1 mm×20 mm, 5 μm particle size). The samples were then eluted using the following conditions; mobile phase: Isopropanol:acetonitrile/10 mM ammonium formate=50/35/15 (v/v/v), flow rate: 0.8 mL/min, temperature: 25° C. Data was acquired in positive mode using a heated electrospray ionization (HESI) interface. The operational parameters for the TSQ Vantage MS/MS instrument were a spray voltage of 3000 V, capillary temperature of 280° C., vaporizer temperature 400° C., sheath gas 45 arbitrary unit, Aux gas 10 arbitrary units, S-lens 165 and collision gas 1.0 mTorr. […] (SRM) chromatograms of ^13C18-triolein (Q1: 920.8>Q3:621.3) and internal standard ^13C21-triolein (Q1: 923.8>Q3:617.3) were collected for 33 sec. The peak area was integrated by Xcalibur Quan software. The ratio between the ^13C18triolein generated in the reaction and spiked in internal standard ^13C21-triolein was used to generate percentage inhibition and IC50 values. Compound percentage inhibition was calculated by the following formula: Inhibition %=1-[(compound response−low control)/(high control−low control)]×100%. Potent compounds were titrated and IC50 were calculated by 4 parameter sigmoidal curve fitting formula.
DGAT2 activity was determined by measuring the amount of enzymatic product ^13C18-triolein (^13C-1,2,3-Tri(cis-9-octadecenoyl)glycerol) using the membrane prep mentioned above. The assay was carried out in ABgene 384-well assay plates in a final volume of 25 μL at rt. The assay mixture contained the following: assay buffer (100 mM Tris·Cl, pH 7.0, 20 mM MgCl2, 5% ethanol), 25 μM of diolein, 5 μM of ^13C oleoyl-CoA and 8 ng/μL of DGAT2 membrane.

Chain of human DGAT2 (hDGAT2) (Q96PD7 whole entry): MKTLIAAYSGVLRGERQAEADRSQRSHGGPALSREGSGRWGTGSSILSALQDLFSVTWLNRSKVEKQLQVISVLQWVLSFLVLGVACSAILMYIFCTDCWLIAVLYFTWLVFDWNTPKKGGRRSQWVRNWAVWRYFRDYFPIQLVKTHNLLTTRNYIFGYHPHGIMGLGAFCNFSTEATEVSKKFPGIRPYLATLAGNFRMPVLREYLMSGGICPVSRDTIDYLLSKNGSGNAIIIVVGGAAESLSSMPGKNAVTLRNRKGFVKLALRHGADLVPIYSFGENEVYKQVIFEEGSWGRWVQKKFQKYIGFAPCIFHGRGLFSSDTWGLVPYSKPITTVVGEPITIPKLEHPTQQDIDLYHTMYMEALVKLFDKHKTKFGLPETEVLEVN

Row | Compound | pIC50
1 | CC1(NC(=O)c2cnc3c(-c4cccc(OC(F)F)c4)nn(CC(O)C(F)(F)F)c3c2)CS(=O)(=O)C1 (single isomer, unassigned) [Example 67b, 3-(3-(difluoromethoxy)phenyl)-N-(3-methyl-1,1-dioxidothietan-3-yl)-1-(3,3,3-trifluoro-2-hydroxypropyl)-1H-pyrazolo[4,3-b]pyridine-6-carboxamide] | 7.05
2 | CC(O)Cn1nc(-c2cccc(OC(F)F)c2)c2ncc(C(=O)NC3(C)CS(=O)(=O)C3)cc21 (single isomer, unassigned) [Example 68a, 3-(3-(difluoromethoxy)phenyl)-1-(2-hydroxypropyl)-N-(3-methyl-1,1-dioxidothietan-3-yl)-1H-pyrazolo[4,3-b]pyridine-6-carboxamide] | 7.74
3 | CC(O)Cn1nc(-c2cccc(OC(F)F)c2)c2ncc(C(=O)NC3(C)CS(=O)(=O)C3)cc21 (single isomer, unassigned) [Example 68b, 3-(3-(difluoromethoxy)phenyl)-1-(2-hydroxypropyl)-N-(3-methyl-1,1-dioxidothietan-3-yl)-1H-pyrazolo[4,3-b]pyridine-6-carboxamide] | 6.75
4 | CC(C)n1nc(-c2cccc(OC(F)F)c2)c2ncc(C(=O)NC3(C(C)O)CCOCC3)cc21 (single isomer, unassigned) [Example 73a, 3-(3-(difluoromethoxy)phenyl)-N-(4-(1-hydroxyethyl)tetrahydro-2H-pyran-4-yl)-1-isopropyl-1H-pyrazolo[4,3-b]pyridine-6-carboxamide] | 6.92
5 | CC(C)n1nc(-c2cccc(OC(F)F)c2)c2ncc(C(=O)NC3(C(C)O)CCOCC3)cc21 (single isomer, unassigned) [Example 73b, 3-(3-(difluoromethoxy)phenyl)-N-(4-(1-hydroxyethyl)tetrahydro-2H-pyran-4-yl)-1-isopropyl-1H-pyrazolo[4,3-b]pyridine-6-carboxamide] | 7.13
6 | CC1(NC(=O)c2cnc3c(-c4cccc(OC(F)F)c4)nn(C4CCOCC4F)c3c2)CS(=O)(=O)C1 (single isomer, unassigned) [Example 75a, 3-(3-(difluoromethoxy)phenyl)-1-(3-fluorotetrahydro-2H-pyran-4-yl)-N-(3-methyl-1,1-dioxidothietan-3-yl)-1H-pyrazolo[4,3-b]pyridine-6-carboxamide] | 7.54
7 | CC1(NC(=O)c2cnc3c(-c4cccc(OC(F)F)c4)nn(C4CCOCC4F)c3c2)CS(=O)(=O)C1 (single isomer, unassigned) [Example 75b, 3-(3-(difluoromethoxy)phenyl)-1-(3-fluorotetrahydro-2H-pyran-4-yl)-N-(3-methyl-1,1-dioxidothietan-3-yl)-1H-pyrazolo[4,3-b]pyridine-6-carboxamide] | 8.05
8 | CC1(NC(=O)c2cnc3c(-c4cccc(OC(F)F)c4)nn(C4CCOC(C(F)(F)F)C4)c3c2)CS(=O)(=O)C1 (single isomer, unassigned) [Example 76a, 3-(3-(difluoromethoxy)phenyl)-N-(3-methyl-1,1-dioxidothietan-3-yl)-1-(2-(trifluoromethyl)tetrahydro-2H-pyran-4-yl)-1H-pyrazolo[4,3-b]pyridine-6-carboxamide] | 7.68
9 | CC1(NC(=O)c2cnc3c(-c4cccc(OC(F)F)c4)nn(C4CCOC(C(F)(F)F)C4)c3c2)CS(=O)(=O)C1 (single isomer, unassigned) [Example 76b, 3-(3-(difluoromethoxy)phenyl)-N-(3-methyl-1,1-dioxidothietan-3-yl)-1-(2-(trifluoromethyl)tetrahydro-2H-pyran-4-yl)-1H-pyrazolo[4,3-b]pyridine-6-carboxamide] | 6.68
10 | CC1(NC(=O)c2cnc3c(-c4cccc(OC(F)F)c4)nn(C4CCOC(C)(C)C4)c3c2)CS(=O)(=O)C1 (single isomer, unassigned) [Example 77a, 3-(3-(difluoromethoxy)phenyl)-1-(2,2-dimethyltetrahydro-2H-pyran-4-yl)-N-(3-methyl-1,1-dioxidothietan-3-yl)-1H-pyrazolo[4,3-b]pyridine-6-carboxamide] | 6.85
11 | CC1(NC(=O)c2cnc3c(-c4cccc(OC(F)F)c4)nn(C4CCOC(C)(C)C4)c3c2)CS(=O)(=O)C1 (single isomer, unassigned) [Example 77b, 3-(3-(difluoromethoxy)phenyl)-1-(2,2-dimethyltetrahydro-2H-pyran-4-yl)-N-(3-methyl-1,1-dioxidothietan-3-yl)-1H-pyrazolo[4,3-b]pyridine-6-carboxamide] | 8.13
12 | CC(O)C(C)n1nc(-c2cccc(OC(F)F)c2)c2ncc(C(=O)NC3(C)CS(=O)(=O)C3)cc21 (single isomer, unassigned) [Example 78a, 3-(3-(difluoromethoxy)phenyl)-1-(3-hydroxybutan-2-yl)-N-(3-methyl-1,1-dioxidothietan-3-yl)-1H-pyrazolo[4,3-b]pyridine-6-carboxamide] | 5.76
13 | CC(O)C(C)n1nc(-c2cccc(OC(F)F)c2)c2ncc(C(=O)NC3(C)CS(=O)(=O)C3)cc21 (single isomer, unassigned) [Example 78b, 3-(3-(difluoromethoxy)phenyl)-1-(3-hydroxybutan-2-yl)-N-(3-methyl-1,1-dioxidothietan-3-yl)-1H-pyrazolo[4,3-b]pyridine-6-carboxamide] | 8.36
14 | CC(O)C(C)n1nc(-c2cccc(OC(F)F)c2)c2ncc(C(=O)NC3(C)CS(=O)(=O)C3)cc21 (single isomer, unassigned) [Example 78c, 3-(3-(difluoromethoxy)phenyl)-1-(3-hydroxybutan-2-yl)-N-(3-methyl-1,1-dioxidothietan-3-yl)-1H-pyrazolo[4,3-b]pyridine-6-carboxamide] | 6.92
15 | CC(O)C(C)n1nc(-c2cccc(OC(F)F)c2)c2ncc(C(=O)NC3(C)CS(=O)(=O)C3)cc21 (single isomer, unassigned) [Example 78d, 3-(3-(difluoromethoxy)phenyl)-1-(3-hydroxybutan-2-yl)-N-(3-methyl-1,1-dioxidothietan-3-yl)-1H-pyrazolo[4,3-b]pyridine-6-carboxamide] | 7.33
16 | CC1(C#N)CC(n2nc(-c3cccc(OC(F)F)c3)c3ncc(C(=O)NC4(C)CS(=O)(=O)C4)cc32)C1 (single isomer, unassigned) [Example 87a, 1-(3-cyano-3-methylcyclobutyl)-3-(3-(difluoromethoxy)phenyl)-N-(3-methyl-1,1-dioxidothietan-3-yl)-1H-pyrazolo[4,3-b]pyridine-6-carboxamide] | 7.15
17 | CC1(C#N)CC(n2nc(-c3cccc(OC(F)F)c3)c3ncc(C(=O)NC4(C)CS(=O)(=O)C4)cc32)C1 (single isomer, unassigned) [Example 87b, 1-(3-cyano-3-methylcyclobutyl)-3-(3-(difluoromethoxy)phenyl)-N-(3-methyl-1,1-dioxidothietan-3-yl)-1H-pyrazolo[4,3-b]pyridine-6-carboxamide] | 6.57

same assay, conditions: table head without 'Human'; same membrane assay; read-out: DGAT2 IC50

Row | Compound | pIC50
18 | CC(n1nc(-c2cccc(OC(F)F)c2)c2ncc(C(=O)NC3(C)CS(=O)(=O)C3)cc21)C(C)(C)O (single isomer, unassigned) [Example 130a, 3-(3-(difluoromethoxy)phenyl)-1-(3-hydroxy-3-methylbutan-2-yl)-N-(3-methyl-1,1-dioxidothietan-3-yl)-1H-pyrazolo[4,3-b]pyridine-6-carboxamide] | 8.55
19 | CC(n1nc(-c2cccc(OC(F)F)c2)c2ncc(C(=O)NC3(C)CS(=O)(=O)C3)cc21)C(C)(C)O (single isomer, unassigned) [Example 130b, 3-(3-(difluoromethoxy)phenyl)-1-(3-hydroxy-3-methylbutan-2-yl)-N-(3-methyl-1,1-dioxidothietan-3-yl)-1H-pyrazolo[4,3-b]pyridine-6-carboxamide] | 7.10
20 | CC(n1nc(-c2cc(OC(F)F)ccc2F)c2ncc(C(=O)NC3(C)CS(=O)(=O)C3)cc21)C(C)(C)O (single isomer, unassigned) [Example 131a, 3-(5-(difluoromethoxy)-2-fluorophenyl)-1-(3-hydroxy-3-methylbutan-2-yl)-N-(3-methyl-1,1-dioxidothietan-3-yl)-1H-pyrazolo[4,3-b]pyridine-6-carboxamide] | 7.96
